Test results from patent publication US8415342B2, “Besifloxacin ophthalmic composition for the treatment or control of infection” (Bausch & Lomb Incorporated, priority 2008, dated 2013).
Converted amounts (≈) assume the structure as drawn.

Assays:
Test in all cases: MIC against defined topoisomerase mutants
Assay type in all cases: cell-based
[1] = test system: S. pneumoniae topoisomerase mutants; conditions: Streptococcus pneumoniae
[2] = test system: S. aureus topoisomerase mutants; conditions: Staphylococcus aureus
[3] = test system: E. coli topoisomerase mutants; conditions: Escherichia coli
Protocol: Furthermore, an experiment was conducted to assess the mechanism of action of besifloxacin in S. pneumoniae, S. aureus, and E. coli via step selections for isolates with decreased susceptibility to besifloxacin, as well as by testing for altered susceptibilities of ciprofloxacin-resistant variants of all three species containing genetically defined mutations in the quinolone resistance determining regions (QRDRs) of structural genes encoding DNA gyrase and topoisomerase IV (Table 2).

SMILES: O=C(O)c1cn(C2CC2)c2cc(N3CCNCC3)c(F)cc2c1=O [Ciprofloxacin]
- MIC ([1]; S. pneumoniae parC S79Y): 8 µg/mL (≈ 24.1 µM)
- MIC ([1]; S. pneumoniae parC S79Y + gyrA S81F): 64 µg/mL
- MIC ([2]; S. aureus Wild type): 1 µg/mL (≈ 3.02 µM)
- MIC ([2]; S. aureus parC S80F + gyrA S84L): 64 µg/mL
- MIC ([3]; E. coli Wild type): 0.008 µg/mL (≈ 0.0241 µM)
- MIC ([3]; E. coli gyrA D87Y (or S83L)): 0.12 µg/mL (≈ 0.362 µM)
- MIC ([3]; E. coli gyrA S83L + parC S80R): 4 µg/mL
- MIC ([3]; E. coli gyrA S83L + parE H445L): 0.12 µg/mL
- MIC ([3]; E. coli gyrB D426N): 0.03 µg/mL (≈ 0.0905 µM)
